One may read the inhibition as the relative decrease from the control value, in per cent.

This note sets out measurements from patent US8435978B2, “Substituted sulfonamide compounds” (Gruenenthal GmbH, priority 2006, dated 2013).

The structures appear in SMILES notation.

In one test the target is T1, B1R receptor of the rat (Rattus norvegicus, UniProt P97583).
T1 construct: host or cells: CHO K1 cells (Chinese hamster ovary), stably transfected
T1 sequence (P97583 1-337): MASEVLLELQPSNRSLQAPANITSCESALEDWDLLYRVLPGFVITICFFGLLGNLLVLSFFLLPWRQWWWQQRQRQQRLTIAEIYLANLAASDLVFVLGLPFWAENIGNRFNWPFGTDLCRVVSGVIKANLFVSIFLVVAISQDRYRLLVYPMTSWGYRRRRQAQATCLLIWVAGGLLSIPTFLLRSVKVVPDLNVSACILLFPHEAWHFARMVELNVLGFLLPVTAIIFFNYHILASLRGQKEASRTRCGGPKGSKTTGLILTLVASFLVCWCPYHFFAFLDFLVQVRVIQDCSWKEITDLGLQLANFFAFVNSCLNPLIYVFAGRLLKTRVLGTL
The test is described as follows: Functional study on the bradykinin receptor 1 (B1R), FLIPR Ca2+ assay, rB1R cells. Type of test: cell-based. Conditions: agonist Des-Arg9-bradykinin 100 nM, % inhibition compared with the maximum achievable inhibition; for inhibition at 10 µM: CHO-K1, test substance 10 μM, read-out: B1R Antagonism, rat [10 μM] % Inhibition; for B1R Antagonism, rat [10 μM] % Inhibition: test substance 10 μM, rB1R CHO K1 cells. In outline: (§1)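 CHO K1 cells stably expressing human or rat B1R were loaded with Fluo-4 and read on a FLIPR (ex 488/em 540 nm, peak fluorescence). Test compounds at 10 μM were added first, then after 10 min agonist: Lys-Des-Arg9-bradykinin 0.5 nM for hB1R, Des-Arg9-bradykinin 100 nM for rB1R; % inhibition versus maximum inhibition.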

Another test deals with T2, human B1R receptor (Homo sapiens, UniProt P46663).
T2 construct: host or cells: CHO K1 cells (Chinese hamster ovary), stably transfected
T2 sequence (P46663 1-353): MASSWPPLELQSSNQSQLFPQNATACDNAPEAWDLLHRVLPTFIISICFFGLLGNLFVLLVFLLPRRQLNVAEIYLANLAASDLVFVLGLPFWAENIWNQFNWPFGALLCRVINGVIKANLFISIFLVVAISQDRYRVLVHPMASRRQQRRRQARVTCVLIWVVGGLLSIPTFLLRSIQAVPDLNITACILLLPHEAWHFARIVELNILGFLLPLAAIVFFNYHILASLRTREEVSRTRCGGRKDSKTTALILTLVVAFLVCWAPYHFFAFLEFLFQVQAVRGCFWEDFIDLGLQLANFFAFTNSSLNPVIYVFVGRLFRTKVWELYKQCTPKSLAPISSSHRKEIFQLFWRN
As to the kind of experiment: Functional study on the bradykinin receptor 1 (B1R), FLIPR Ca2+ assay, hB1R cells. It counts as cell-based. Conditions: agonist Lys-Des-Arg9-bradykinin 0.5 nM, % inhibition compared with the maximum achievable inhibition; for inhibition at 10 µM: CHO-K1, test substance 10 μM, read-out: B1R Antagonism, human [10 μM] % Inhibition; for B1R Antagonism, human [10 μM] % Inhibition: test substance 10 μM, hB1R CHO K1 cells. In outline:
as §1

In the case of `COc1cc(C)c(S(=O)(=O)N2CCCCC2COCC(=O)N2CCN(C)CC2)c(C)c1` (stereo not shown) [Example 242, 2-((1-(4-methoxy-2,6-dimethylphenylsulfonyl)piperidin-2-yl)methoxy)-1-(4-methylpiperazin-1-yl)ethanone], the inhibition at 10 µM on B1R receptor of the rat was 88%; at human B1R receptor, 102%.
As to `COc1cc(C)c(S(=O)(=O)N2CCCCC2COCC(=O)NCCc2c[nH]c3ccccc23)c(C)c1` (stereo not shown) [Example 243, N-(2-(1H-indol-3-yl)ethyl)-2-((1-(4-methoxy-2,6-dimethylphenylsulfonyl)piperidin-2-yl)methoxy)acetamide], the inhibition at 10 µM at B1R receptor of the rat was 80.6%; at human B1R receptor, 24.8%.
The matching figures for `COc1cc(C)c(S(=O)(=O)N2CCCCC2COCC(=O)Nc2cc(C)nc3ccccc23)c(C)c1` (stereo not shown) [Example 244, 2-((1-(4-methoxy-2,6-dimethylphenylsulfonyl)piperidin-2-yl)methoxy)-N-(2-methylquinolin-4-yl)acetamide]: 97.3% and 70.2%.
In the same order, the values of `CCOCCN1CCN(C(=O)COCC2Cc3ccccc3CN2S(=O)(=O)c2c(C)cc(C)cc2C)CC1` (stereo not shown) [Example 245, 1-(4-(2-ethoxyethyl)piperazin-1-yl)-2-((2-(mesitylsulfonyl)-1,2,3,4-tetrahydroisoquinolin-3-yl)methoxy)ethanone] are 80.5% and 69.9%.
In the same order, the values of `COCCN1CCN(C(=O)COCC2Cc3ccccc3CN2S(=O)(=O)c2c(C)cc(C)cc2C)CC1` (stereo not shown) [Example 246, 2-((2-(mesitylsulfonyl)-1,2,3,4-tetrahydroisoquinolin-3-yl)methoxy)-1-(4-(2-methoxyethyl)piperazin-1-yl)ethanone] are 72.1% and 56.4%.
For the molecule `COc1cc(C)c(S(=O)(=O)N2CCCCC2COCC(=O)N2CCCC2c2ccccn2)c(C)c1` (stereo not shown) [Example 247, 2-((1-(4-methoxy-2,6-dimethylphenylsulfonyl)piperidin-2-yl)methoxy)-1-(2-(pyridin-2-yl)pyrrolidin-1-yl)ethanone], the results for the inhibition at 10 µM on B1R receptor of the rat and at human B1R receptor were 96.8% and 70.8%, respectively.
As to `COc1cc(C)c(S(=O)(=O)N2CCCCC2COCC(=O)NCCN2CCN(C)CC2)c(C)c1` (stereo not shown) [Example 248, 2-((1-(4-methoxy-2,6-dimethylphenylsulfonyl)piperidin-2-yl)methoxy)-N-(2-(4-methylpiperazin-1-yl)ethyl)acetamide], the inhibition at 10 µM on B1R receptor of the rat was 89.9%; at human B1R receptor it was 95.6%.
Consider `COc1cc(C)c(S(=O)(=O)N2CCCCC2COCC(=O)NCC(c2ccc(C(F)(F)F)cc2)N2CCOCC2)c(C)c1` (stereo not shown) [Example 249, 2-((1-(4-methoxy-2,6-dimethylphenylsulfonyl)piperidin-2-yl)methoxy)-N-(2-morpholin-2-(4-(trifluoromethyl)phenyl)ethyl)acetamide], for which the “B1R Antagonism, rat [10 μM] % Inhibition” value at B1R receptor of the rat came out at 92.36%. For the same molecule, the “B1R Antagonism, human [10 μM] % Inhibition” value on human B1R receptor was determined as 59.22%.
For `COc1cc(C)c(S(=O)(=O)N2CCCCC2COCC(=O)NCCCCCN(C)C)c(C)c1` (stereo not shown) [Example 250, N-(5-(dimethylamino)pentyl)-2-((1-(4-methoxy-2,6-dimethylphenylsulfonyl)piperidin-2-yl)methoxy)acetamide], the inhibition at 10 µM at B1R receptor of the rat was found to be 90.5%; on human B1R receptor, 96.8%.
Regarding `COc1cc(C)c(S(=O)(=O)N2CCCCC2COCC(=O)NCC(c2ccccc2Cl)N2CCOCC2)c(C)c1` (stereo not shown) [Example 251, N-(2-(2-chlorophenyl)-2-morpholinoethyl)-2-((1-(4-methoxy-2,6-dimethylphenylsulfonyl)piperidin-2-yl)methoxy)acetamide], the inhibition at 10 µM at B1R receptor of the rat amounted to 98.5%; at human B1R receptor, 45.8%.
Turning to `COc1ccc(C(CNC(=O)COCC2CCCCN2S(=O)(=O)c2c(C)cc(OC)cc2C)N2CCCC2)cc1` (stereo not shown) [Example 252, 2-((1-(4-methoxy-2,6-dimethylphenylsulfonyl)piperidin-2-yl)methoxy)-N-(2-(4-methoxyphenyl)-2-(pyrrolidin-1-yl)ethyl)acetamide], the inhibition at 10 µM on B1R receptor of the rat came to 97.9%; at human B1R receptor it was 102%.
The matching figures for `COc1cc(OC)cc(N2CCN(C(=O)COCC3CCCCN3S(=O)(=O)c3c(Cl)cc(Cl)cc3Cl)CC2)c1` (stereo not shown) [Example 253, 1-(4-(3,5-dimethoxyphenyl)piperazin-1-yl)-2-((1-(2,4,6-trichlorophenylsulfonyl)piperidin-2-yl)methoxy)ethanone]: 101% and 59.3%.
Regarding `CC(C)N(CCN1CCN(C(=O)COCC2CCCCN2S(=O)(=O)c2c(Cl)cc(Cl)cc2Cl)CC1)C(C)C` (stereo not shown) [Example 254, 1-(4-(2-(diisopropylamino)ethyl)piperazin-1-yl)-2-((1-(2,4,6-trichlorophenylsulfonyl)piperidin-2-yl)methoxy)ethanone], the inhibition at 10 µM at B1R receptor of the rat amounted to 97.8%; at human B1R receptor, 105%.
The matching figures for `O=C(COCC1CCCCN1S(=O)(=O)c1c(Cl)cc(Cl)cc1Cl)N(C1CC1)C1CCN(Cc2ccccc2)CC1` (stereo not shown) [Example 255, N-(1-benzylpiperidin-4-yl)-N-cyclopropyl-2-((1-(2,4,6-trichlorophenylsulfonyl)piperidin-2-yl)methoxy)acetamide]: 101% and 105%.
In the same order, the values of `O=C(COCC1CCCCN1S(=O)(=O)c1c(Cl)cc(Cl)cc1Cl)NCC(c1cccnc1)N1CCOCC1` (stereo not shown) [Example 256, N-(2-morpholino-2-(pyridin-3-yl)ethyl)-2-((1-(2,4,6-trichlorophenylsulfonyl)piperidin-2-yl)methoxy)acetamide] are 91% and 50.2%.
The matching figures for `CCn1nccc1NC(=O)COCC1CCCCN1S(=O)(=O)c1c(C)cc(OC)cc1C` (stereo not shown) [Example 257, N-(1-ethyl-1H-pyrazol-5-yl)-2-((1-(4-methoxy-2,6-dimethylphenylsulfonyl)piperidin-2-yl)methoxy)acetamide]: 99.9% and 34.3%.
In the case of `COc1cc(C)c(S(=O)(=O)N2CCCCC2COCC(=O)Nc2cccc3cnccc23)c(C)c1` (stereo not shown) [Example 258], the “B1R Antagonism, rat [10 μM] % Inhibition” value at B1R receptor of the rat came to 99.75%. Also, the “B1R Antagonism, human [10 μM] % Inhibition” value on human B1R receptor was 75.25%.
Turning to `COc1cc(C)c(S(=O)(=O)N2CCCCC2COCC(=O)NCCN(C)C)c(C)c1` (stereo not shown) [Example 259, N-(2-(dimethylamino)ethyl)-2-((1-(4-methoxy-2,6-dimethylphenylsulfonyl)piperidin-2-yl)methoxy)acetamide], the inhibition at 10 µM at B1R receptor of the rat was 99.3%; at human B1R receptor, 66.1%.
With `COc1cc(C)c(S(=O)(=O)N2CCCCC2COCC(=O)NCCCN2C(C)CCCC2C)c(C)c1` (stereo not shown) [Example 260, N-(3-(2,6-dimethylpiperidin-1-yl)propyl)-2-((1-(4-methoxy-2,6-dimethylphenylsulfonyl)piperidin-2-yl)methoxy)acetamide], the inhibition at 10 µM was determined as 60.6% at B1R receptor of the rat and 102% at human B1R receptor.
In the same order, the values of `COc1cc(C)c(S(=O)(=O)N2CCCCC2COCC(=O)NC(CN(C)C)c2ccccc2)c(C)c1` (stereo not shown) [Example 261, N-(2-(dimethylamino)-1-phenylethyl)-2-((1-(4-methoxy-2,6-dimethylphenylsulfonyl)piperidin-2-yl)methoxy)acetamide] are 98.9% and 78.9%.
For `COc1cc(C)c(S(=O)(=O)N2CCCCC2COCC(=O)NC(CN2CCCC2)c2ccccc2)c(C)c1` (stereo not shown) [Example 262, 2-((1-(4-methoxy-2,6-dimethylphenylsulfonyl)piperidin-2-yl)methoxy)-N-(1-phenyl-2-(pyrrolidin-1-yl)ethyl)acetamide], the results for the inhibition at 10 µM at B1R receptor of the rat and on human B1R receptor were 99.7% and 81.8%, respectively.
For `COc1cc(C)c(S(=O)(=O)N2CCCCC2COCC(=O)NC(CN2CCN(C)CC2)c2ccccc2)c(C)c1` (stereo not shown) [Example 263, 2-((1-(4-methoxy-2,6-dimethylphenylsulfonyl)piperidin-2-yl)methoxy)-N-(2-(4-methylpiperazin-1-yl)-1-phenylethyl)acetamide], the results for the inhibition at 10 µM at B1R receptor of the rat and on human B1R receptor were 97.8% and 100%, respectively.
In the same order, the values of `O=C(COCC1Cc2ccccc2CN1S(=O)(=O)c1ccccc1)Nc1cccc(N2CCOCC2)c1` (stereo not shown) [Example 264, N-(3-morpholinophenyl)-2-((2-(phenylsulfonyl)-1,2,3,4-tetrahydroisoquinolin-3-yl)methoxy)acetamide] are 31.7% and 103%.
